Patent US7179814B2, “Agents for controlling plant pests” (priority 1998, dated 2007)
Where two headings read alike, the source gives them in different places.

How the values were obtained:
Assay type in all cases: in vivo
[1] = system: larvae of the mustard beetle (Phaedon cochleariae); experiment: Phaedon larvae test (cabbage leaf dip)
Experimental: (§1) To produce a suitable preparation of active compound, 1 part by weight of an active compound or an active compound combination is mixed with the stated amounts of solvent and emulsifier, and the concentrate is diluted with water to the desired concentration.
Cabbage leaves (Brassica oleracea) are treated by being dipped into the preparation of active compound of the desired concentration and are populated with larvae of the mustard beetle (Phaedon cochleariae) while the leaves are still moist.
After the desired period of time, the kill in % is determined. 100% means that all beetle larvae have been killed; 0% means that none of the beetle larvae have been killed.

[2] = system: Spodoptera frugiperda; experiment: Critical concentration test/soil insects, Spodoptera frugiperda; details: 120 h, 5 days after infestation, read-out: Kill in %
Experimental: To produce a suitable preparation of active compound, 1 part by weight of the active compound or the active compound mixture is mixed with the stated amounts of solvent and emulsifier, and the concentrate is diluted with water to the desired concentration.
The active compound preparation is mixed intimately with soil. Here, the concentration of the active compound in the preparation is almost irrelevant; only the amount by weight of active compound or active compound mixture per volume unit of soil, which is stated in ppm (mg/l), matters.
Soil is filled into 0.5 l pots and these are allowed to stand at 20° C. Immediately after preparation, 3 pre-germinated maize corns are placed into each pot. After the maize corns have emerged, boring sleeves are placed onto the pots. 9 days after preparation, the maize is populated with the test insects. After a further 5 days, the kill in % is determined. 100% means that all test insects have been killed; 0% means that the number of insects which are still alive is the same as for the untreated control.

[3] = system: Phytophthora infestans; details: single active compound
[4] = system: Puccinia recondita; experiment: Puccinia test (wheat)/protective; details: 62.5 g/ha, 10 days after inoculation
Experimental: as §1, with “of” for “of an”, “or” for “or an”, “desired concentration, or a commercial formulation of active compound or active compound combination is diluted with water to the desired” for “desired”
To test for protective activity, young plants are sprayed with the active compound preparation at the stated application rate. After the spray coating has dried on, the plants are sprayed with a conidia suspension of Puccinia recondita. The plants remain in an incubation cabin at 20° C. and 100% relative atmospheric humidity for 48 hours.
The plants are then placed in a greenhouse at a temperature of approximately 20° C. and a relative atmospheric humidity of 80% to promote the development of rust pustules.
Evaluation is carried out 10 days after the inoculation. 0% means an efficacy which corresponds to that of the control, whereas an efficacy of 100% means that no infection is observed.

[5] = system: Diabrotica balteata - larvae in the soil; experiment: Critical concentration test/soil insects, Diabrotica balteata (Example Q); details: 1.25 ppm in soil; efficacy calculated from number of emerged maize plants
Experimental: To produce a suitable preparation of active compound, 1 part by weight of active compound is mixed with the stated amount of solvent, the stated amount of emulsifier is added and the concentrate is diluted with water to the desired concentration. Here, the concentration of the active compound in the preparation is almost irrelevant; only the amount by weight of active compound per volume unit of soil, which is stated in ppm (mg/l), matters. The soil is filled into 0.5 l pots and these are allowed to stand at 20° C.
Immediately after preparation, 5 maize corns are placed into each pot. After 3 days, the test insects are placed into the treated soil. After a further 7 days, the efficacy is determined. The efficacy is calculated from the number of maize plants which have emerged.

## N#C/N=C1/SCCN1Cc1ccc(Cl)nc1 [formula (I)]
[1]; concentration 0.00016 %
  Kill in %: 5%
[1]; concentration 0.0008 %
  Kill in %: 40%
[2]; 5.00 ppm in soil
  pest or weed control at 5 ppm: 0%
[2]; 10.00 ppm in soil
  pest or weed control at 10 ppm: 50%
[2]; 20.00 ppm in soil
  pest or weed control at 20 ppm: 100%
[3]; 10 g/ha
  Efficacy in %: 0%
[3]; 50 g/ha
  Efficacy in %: 11%
[3]; 500 g/ha, 3 days after inoculation
  Efficacy in %: 46%
[4]
  Efficacy in %: 0%
[5]
  Kill in % at active compound concentrations in ppm: 1.25 ppm = 50%
